Measurements published in patent US20140155406A1, “4-IMIDAZOPYRIDAZIN-1-YL-BENZAMIDES AND 4-IMIDAZOTRIAZIN-1-YL-BENZAMIDES BTK INHIBITORS” (priority 2011, published 2014).

How the values were obtained:
[1] = biological target: T1, Btk enzyme (His-Btk) (Homo sapiens, UniProt Q06187); test: Btk enzyme activity, IMAP fluorescence polarization assay; type: biochemical; settings: 60 min pre-incubation, 5 μM ATP (Km)
T1 construct: His; purchased Millipore 14-552
From the text: Inhibition of kinase activity can be measured using the Immobilized Metal Assay for Phosphochemicals (IMAP) assay. IMAP is a homogeneous fluorescence polarization (FP) assay based on affinity capture of phosphorylated peptide substrates. IMAP uses fluorescein-labeled peptide substrates that, upon phosphorylation by a protein kinase, bind to so-called IMAP nanoparticles, which are derivatized with trivalent metal complexes. Binding causes a change in the rate of the molecular motion of the peptide, and results in an increase in the FP value observed for the fluorescein label attached to the substrate peptide (Gaudet et al. A homogeneous fluorescence polarization assay adaptable for a range of protein serine/threonine and tyrosine kinases. J. Biomol. Screen (2003) 8, 164-175).
Btk enzyme activity is measured using the IMAP (immobilized metal ion affinity-based fluorescence polarization) assay as outlined below.
Btk enzyme (His-Btk (Millipore catalog#14-552), is diluted to 0.4 U/mL in KR buffer (10 mM Tris-HCl, 10 mM MgCl2, 0.01% Tween-20, 0.05% NaN3, 1 mM DTT, 2 mM MnCl2, pH 7.2).
Serial dilution log 10 from 2 mM to 63.2 nM of test compounds are made in 100% DMSO. The dilutions in DMSO are then diluted 50-fold in KR-buffer. Final compound concentration range in the assay from 10 μM to 0.316 nM.
5 μL/well of test compound in KR buffer (final DMSO concentration in the assay is 1%) is mixed with 5 μl/well of 0.4 U/mL Btk enzyme (final concentration in the assay is 0.1 U/mL). Test compounds and Btk enzyme are pre-incubated 60 minutes at room temperature, before adding 5 μL/well of 200 nM Fluorescin labeled substrate peptide (Blk/Lyntide substrate, e.g. #R7188/#R7233, Molecular Devices) in KR-buffer. Final peptide substrate concentration in assay is 50 nM. The kinase assay is started by adding 5 μL/well of 20 μM ATP in KR-buffer (final ATP concentration is 5 μM ATP, Km ATP in Btk IMAP assay). Following incubation for 2 h at room temperature the enzyme reaction is stopped by adding 40 μL/well IMAP Progressive Binding Solution (according to suppliers (Molecular Devices) protocol using 75% 1× buffer A and 25% 1× buffer B with 1:600 Progressive Binding Solution). After 60 min incubation at room temperature in the dark the FP signal is read. Fluorescence at 535 nm is measured using parallel and perpendicular filters to determine differences in rotation due to binding of the phosphorylated substrate peptide to the beads. Values are calculated as percentage of the difference in readout (ΔmPi) of the controls with and without ATP. EC50 values are determined by curve fitting of the experimental results using Activity Base.

[2] = biological target: T2, Src enzyme (Homo sapiens, UniProt P12931); test: Src enzyme activity, IMAP fluorescence polarization assay; type: biochemical; settings: 60 min pre-incubation, 4 μM ATP (Km)
T2 construct: purchased Millipore 14-326
Protocol: Src enzyme activity is measured using the IMAP (immobilized metal ion affinity-based fluorescence polarization) assay as outlined below.
Src enzyme (Millipore catalog#14-326), is diluted to 0.8 U/mL in KR buffer (10 mM Tris-HCl, 10 mM MgCl2, 0.01% Tween-20, 0.05% NaN3, 1 mM DTT, 2 mM MnCl2, pH 7.2).
Serial dilution log 10 from 2 mM to 63.2 nM of test compounds are made in 100% DMSO. The dilutions in DMSO are then diluted 50-fold in KR-buffer of which 5 μl is used in the assay, leading to a final compound concentration range in the assay from 10 μM to 0.316 nM. 5 μL/well of test compound in KR buffer (final DMSO concentration in the assay is 1%) is mixed with 5 μl/well of 0.8 U/mL Src enzyme (final concentration in the assay is 0.2 U/mL). Test compounds and Src enzyme are pre-incubated 60 minutes at room temperature, before adding 5 μL/well of 400 nM Fluorescin labeled substrate peptide (p34cdc2 substrate peptide, e.g. #R7157/#R7172, Molecular Devices) in KR-buffer. Final peptide substrate concentration in assay is 100 nM. The kinase assay is started by adding 5 μL/well of 16 μM ATP in KR-buffer (final ATP concentration is 4 μM ATP, Km ATP in Src IMAP assay). Following incubation for 2 h at room temperature the enzyme reaction is stopped by adding 40 μL/well IMAP Progressive Binding Solution (according to suppliers (Molecular Devices) protocol using 75% 1× buffer A and 25% 1× buffer B with 1:600 Progressive Binding Solution). After 60 min incubation at room temperature in the dark the FP signal is read. Fluorescence at 535 nm is measured using parallel and perpendicular filters to determine differences in rotation due to binding of the phosphorylated substrate peptide to the beads. Values are calculated as percentage of the difference in readout (ΔmPi) of the controls with and without ATP. EC50 values are determined by curve fitting of the experimental results using Activity Base.

T1 sequence (Q06187 whole entry): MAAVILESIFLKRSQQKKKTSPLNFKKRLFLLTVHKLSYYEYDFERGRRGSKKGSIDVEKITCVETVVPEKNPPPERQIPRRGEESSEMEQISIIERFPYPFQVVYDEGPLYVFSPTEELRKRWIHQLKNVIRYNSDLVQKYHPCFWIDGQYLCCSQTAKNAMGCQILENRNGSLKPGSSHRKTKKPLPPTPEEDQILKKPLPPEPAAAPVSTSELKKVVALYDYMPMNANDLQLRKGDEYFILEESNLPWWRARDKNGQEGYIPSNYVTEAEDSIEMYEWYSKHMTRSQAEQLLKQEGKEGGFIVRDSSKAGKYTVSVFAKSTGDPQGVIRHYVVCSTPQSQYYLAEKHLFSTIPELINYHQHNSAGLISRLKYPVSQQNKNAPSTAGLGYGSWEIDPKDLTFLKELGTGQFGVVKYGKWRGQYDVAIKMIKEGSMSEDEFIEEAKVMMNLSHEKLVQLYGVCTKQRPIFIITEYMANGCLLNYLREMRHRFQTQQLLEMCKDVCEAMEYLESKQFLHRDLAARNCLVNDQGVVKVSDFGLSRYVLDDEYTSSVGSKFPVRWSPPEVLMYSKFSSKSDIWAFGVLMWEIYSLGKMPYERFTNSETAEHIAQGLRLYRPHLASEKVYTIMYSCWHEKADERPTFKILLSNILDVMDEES
T2 sequence (P12931 whole entry): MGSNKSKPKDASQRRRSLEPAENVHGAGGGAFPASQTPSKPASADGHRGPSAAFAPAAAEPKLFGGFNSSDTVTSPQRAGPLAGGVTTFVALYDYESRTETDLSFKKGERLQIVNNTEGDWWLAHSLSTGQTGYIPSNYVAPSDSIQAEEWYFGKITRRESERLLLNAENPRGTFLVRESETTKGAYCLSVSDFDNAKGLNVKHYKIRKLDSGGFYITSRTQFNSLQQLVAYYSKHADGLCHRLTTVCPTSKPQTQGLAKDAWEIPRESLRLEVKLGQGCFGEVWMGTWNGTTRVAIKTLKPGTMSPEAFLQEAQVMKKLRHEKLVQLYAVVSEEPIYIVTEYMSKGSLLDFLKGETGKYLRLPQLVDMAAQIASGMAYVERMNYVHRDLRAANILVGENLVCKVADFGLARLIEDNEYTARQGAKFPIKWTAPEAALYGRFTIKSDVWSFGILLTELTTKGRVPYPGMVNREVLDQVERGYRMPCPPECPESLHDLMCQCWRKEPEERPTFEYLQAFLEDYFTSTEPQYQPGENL

Row | EC50 ([1]; bin bounds given in nM) [nM] | EC50 [2] [nM] | EC50 ([1]; bounds given in μM) [nM] | Structure (SMILES)
1 | < 10 | ≥ 1000 |  | CC#CC(=O)N1CCCC[C@H]1c1nc(-c2ccc(C(=O)Nc3cc(C(F)(F)F)ccn3)cc2)c2c(C)nccn12 [Example 29, (S)-4-(3-(1-but-2-ynoylpiperidin-2-yl)-8-methylimidazo[1,5-a]pyrazin-1-yl)-N-(4-(trifluoromethyl)pyridin-2-yl)benzamide]
2 | < 10 | ≥ 1000 |  | CC#CC(=O)N[C@@H](C)c1nc(-c2ccc(C(=O)Nc3cc(C(F)(F)F)ccn3)cc2)c2c(C)nccn12 [Example 7, (S)-4-(3-(1-But-2-ynamidoethyl)-8-methylimidazo[1,5-a]pyrazin-1-yl)-N-(4-(trifluoromethyl)pyridin-2-yl)benzamide]
3 | < 10 | ≥ 1000 |  | CCCc1ccnc(NC(=O)c2ccc(-c3nc([C@H](C)NC(=O)/C=C/CN(C)C)n4ccnc(C)c34)cc2)c1 [Example 28, (S,E)-4-(3-(1-(4-(dimethylamino)but-2-enamido)ethyl)-8-methylimidazo[1,5-a]pyrazin-1-yl)-N-(4-propylpyridin-2-yl)benzamide]
4 | < 10 | ≥ 1000 |  | C=CC(=O)N1CCC[C@H]1c1nc(-c2ccc(C(=O)Nc3ccccn3)cc2)c2c(C)nccn12 [Example 19, (S)-4-(3-(1-acryloylpyrrolidin-2-yl)-8-methylimidazo[1,5-a]pyrazin-1-yl)-N-(pyridin-2-yl)benzamide]
5 | < 10 | ≥ 1000 |  | CCCc1ccnc(NC(=O)c2ccc(-c3nc([C@@H]4CCCCN4C(=O)/C=C/CN4CCCC4)n4ccnc(C)c34)cc2)c1 [Example 35, (S,E)-4-(8-methyl-3-(1-(4-(pyrrolidin-1-yl)but-2-enoyl)piperidin-2-yl)imidazo[1,5-a]pyrazin-1-yl)-N-(4-propylpyridin-2-yl)benzamide]
6 | < 10 | ≥ 1000 |  | Cc1nccn2c([C@@H]3CCCCN3C(=O)/C=C/CN(C)C)nc(-c3ccc(C(=O)Nc4cc(C(F)(F)F)ccn4)cc3)c12 [Example 37, (S,E)-4-(3-(1-(4-(dimethylamino)but-2-enoyl)piperidin-2-yl)-8-methylimidazo[1,5-a]pyrazin-1-yl)-N-(4-(trifluoromethyl)pyridin-2-yl)benzamide]
7 | < 10 | ≥ 1000 |  | C=CC(=O)N1CCCC[C@H]1c1nc(-c2ccc(C(=O)Nc3cc(CCC)ccn3)cc2)c2c(C)nccn12 [Example 2, (S)-4-(3-(1-Acryloylpiperidin-2-yl)-8-methylimidazo[1,5-a]pyrazin-1-yl)-N-(4-propylpyridin-2-yl)benzamide]
8 | < 10 | ≥ 1000 |  | CC#CC(=O)N1CCCC[C@H]1c1nc(-c2ccc(C(=O)Nc3cc(CCC)ccn3)cc2)c2c(C)nccn12 [Example 22, (S)-4-(3-(1-but-2-ynoylpiperidin-2-yl)-8-methylimidazo[1,5-a]pyrazin-1-yl)-N-(4-propylpyridin-2-yl)benzamide]
9 | < 10 | ≥ 1000 |  | C=CC(=O)N1CCC[C@H]1c1nc(-c2ccc(C(=O)Nc3cc(C#N)ccn3)cc2)c2c(C)nccn12 [Example 13, (S)-4-(3-(1-Acryloylpyrrolidin-2-yl)-8-methylimidazo[1,5-a]pyrazin-1-yl)-N-(4-cyanopyridin-2-yl)benzamide]
10 | ≥ 100 | ≥ 1000 | < 1000 | CC#CC(=O)N1CCC[C@H]1c1nc(-c2ccc(C(=O)Nc3cc(C)ccn3)cc2)c2c(C)nccn12 [Example 15, (S)-4-(3-(1-but-2-ynoylpyrrolidin-2-yl)-8-methylimidazo[1,5-a]pyrazin-1-yl)-N-(4-methylpyridin-2-yl)benzamide]
11 | < 10 | ≥ 1000 |  | C=CC(=O)N[C@@H](C)c1nc(-c2ccc(C(=O)Nc3cc(CCC)ccn3)cc2)c2c(C)nccn12 [Example 23, (S)-4-(3-(1-acrylamidoethyl)-8-methylimidazo[1,5-a]pyrazin-1-yl)-N-(4-propylpyridin-2-yl)benzamide]
12 | < 10 | ≥ 1000 |  | C=CC(=O)N1CCC[C@H]1c1nc(-c2ccc(C(=O)Nc3cc(CCC)ccn3)cc2)c2c(C)nccn12 [Example 9, (S)-4-(3-(1-Acryloylpyrrolidin-2-yl)-8-methylimidazo[1,5-a]pyrazin-1-yl)-N-(4-propylpyridin-2-yl)benzamide]
13 | ≥ 100 | ≥ 1000 | < 1000 | Cc1nccn2c([C@@H]3CCCN3C(=O)/C=C/CN3CCCC3)nc(-c3ccc(C(=O)Nc4ccccn4)cc3)c12 [Example 25, (S,E)-4-(8-methyl-3-(1-(4-(pyrrolidin-1-yl)but-2-enoyl)pyrrolidin-2-yl)imidazo[1,5-a]pyrazin-1-yl)-N-(pyridin-2-yl)benzamide]
14 | < 10 | ≥ 1000 |  | CCCc1ccnc(NC(=O)c2ccc(-c3nc([C@H](C)NC(=O)/C=C/COC)n4ccnc(C)c34)cc2)c1 [Example 36, (S,E)-4-(3-(1-(4-methoxybut-2-enamido)ethyl)-8-methylimidazo[1,5-a]pyrazin-1-yl)-N-(4-propylpyridin-2-yl)benzamide]
15 | < 10 | ≥ 1000 |  | COC/C=C/C(=O)N[C@@H](C)c1nc(-c2ccc(C(=O)Nc3cc(C(F)(F)F)ccn3)cc2)c2c(C)nccn12 [Example 6, (S,E)-4-(3-(1-(4-Methoxybut-2-enamido)ethyl)-8-methylimidazo[1,5-a]pyrazin-1-yl)-N-(4-(trifluoromethyl)pyridin-2-yl)benzamide]
16 | < 10 | ≥ 1000 |  | C=CS(=O)(=O)N1CCCC[C@H]1c1nc(-c2ccc(C(=O)Nc3cc(CCC)ccn3)cc2)c2c(C)nccn12 [Example 4, (S)-4-(8-Methyl-3-(1-(vinylsulfonyl)piperidin-2-yl)imidazo[1,5-a]pyrazin-1-yl)-N-(4-propylpyridin-2-yl)benzamide]
17 | < 10 | ≥ 1000 |  | C=CC(=O)N1CCC[C@H]1c1nc(-c2ccc(C(=O)Nc3cc(C(F)(F)F)ccn3)cc2)c2c(C)nccn12 [Example 10, (S)-4-(3-(1-Acryloylpyrrolidin-2-yl)-8-methylimidazo[1,5-a]pyrazin-1-yl)-N-(4-(trifluoromethyl)pyridin-2-yl)benzamide]
18 | < 10 | ≥ 1000 |  | Cc1nccn2c([C@@H]3CCCCN3C(=O)/C=C/CN3CCCC3)nc(-c3ccc(C(=O)Nc4cc(C(F)(F)F)ccn4)cc3)c12 [Example 21, (S,E)-4-(8-methyl-3-(1-(4-(pyrrolidin-1-yl)but-2-enoyl)piperidin-2-yl)imidazo[1,5-a]pyrazin-1-yl)-N-(4-(trifluoromethyl)pyridin-2-yl)benzamide]
19 | < 10 | ≥ 1000 |  | CC#CC(=O)N[C@@H](C)c1nc(-c2ccc(C(=O)Nc3cc(CCC)ccn3)cc2)c2c(C)nccn12 [Example 38, (S)-4-(3-(1-but-2-ynamidoethyl)-8-methylimidazo[1,5-a]pyrazin-1-yl)-N-(4-propylpyridin-2-yl)benzamide]
